From ChEMBL document CHEMBL1153362, “Discovery of 6-({4-[2-(4-tert-butylphenyl)-1H-benzimidazol-4-yl]piperazin-1-yl}methyl)quinoxaline (WAY-207024): an orally active antagonist of the gonadotropin releasing hormone receptor (GnRH-R)” (J Med Chem, 2009) come the findings set out here.

Data set [1] addresses T1, Gonadotropin-releasing hormone receptor (Homo sapiens, UniProt P30968).
T1 sequence (P30968 whole entry): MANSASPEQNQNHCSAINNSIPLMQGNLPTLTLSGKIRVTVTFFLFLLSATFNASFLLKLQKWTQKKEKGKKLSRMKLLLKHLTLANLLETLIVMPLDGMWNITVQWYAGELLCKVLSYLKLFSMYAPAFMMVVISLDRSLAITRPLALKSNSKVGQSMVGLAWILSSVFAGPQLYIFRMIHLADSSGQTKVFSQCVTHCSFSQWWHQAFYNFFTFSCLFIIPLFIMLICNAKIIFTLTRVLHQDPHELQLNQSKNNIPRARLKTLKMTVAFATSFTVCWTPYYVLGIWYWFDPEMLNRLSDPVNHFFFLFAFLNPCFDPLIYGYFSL
Description: Antagonist activity at human GnRH receptor assessed as inhibition of [D-Trp6]-GnRH-stimulated [3H]IP […]. Type of data set: functional.

Data set [2] addresses T1, Gonadotropin-releasing hormone receptor. Description: Displacement of [D-Trp6]-GnRH from human recombinant GnRH receptor.
Data set [3] deals with T2, Gonadotropin-releasing hormone receptor (Rattus norvegicus, UniProt P30969).
T2 sequence (P30969 whole entry): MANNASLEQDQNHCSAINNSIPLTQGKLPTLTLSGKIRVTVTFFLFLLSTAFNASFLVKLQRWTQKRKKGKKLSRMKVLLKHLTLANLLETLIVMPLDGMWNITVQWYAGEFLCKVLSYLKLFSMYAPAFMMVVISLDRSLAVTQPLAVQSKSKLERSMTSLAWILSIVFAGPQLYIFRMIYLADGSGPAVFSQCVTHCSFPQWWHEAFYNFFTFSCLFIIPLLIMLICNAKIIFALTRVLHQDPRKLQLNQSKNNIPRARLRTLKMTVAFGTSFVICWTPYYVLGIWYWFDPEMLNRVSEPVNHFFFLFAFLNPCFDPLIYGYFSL
Description: Antagonist activity at rat recombinant GnRH receptor assessed as inhibition of [D-Trp6]-GnRH-stimulated LH release from rat pituitary cells. Format: functional, cell-based, Pituitary gland cell.

The nature of data set [4]: Aqueous solubility at pH 7.4. Type of data set: physicochemical.
Data set [5] in a line: Permeability across artificial membrane. Type of data set: ADME. As to conditions: PAMPA; read-out: permeability.
Data set [6] has as its target T2, Gonadotropin-releasing hormone receptor. Description: Displacement of [D-Trp6]-GnRH from rat recombinant GnRH receptor.
The nature of data set [7]: Metabolic stability in rat liver microsomes assessed as half life. Format: ADME, Microsome.
Data set [8] in a line: Half life in castrated rat at 1 mg/kg, iv. Type of data set: ADME, organism-based. Details: dose 1 mg/kg, route intravenous. To be noted: male, in vivo.
A short description of data set [9]: Clearance in castrated rat plasma at 1 mg/kg, iv. To be noted: male. Set-up: dose 1 mg/kg, route intravenous. Type of data set: ADME, organism-based.
Data set [10] in a line: Volume of distribution at steady state in castrated rat at 1 mg/kg, iv. Type of data set: ADME, organism-based. Set-up: dose 1 mg/kg, route intravenous. To be noted: male, in vivo, read-out: Vdss.
Data set [11] in a line: AUC (0 to infinity) in castrated rat at 1 mg/kg, iv. Type of data set: ADME, organism-based. Set-up: time infinity, dose 1 mg/kg, route intravenous. To be noted: male, plasma.
The nature of data set [12]: Half life in castrated rat at 20 mg/kg, po. Type of data set: ADME, organism-based. Details: dose 20 mg/kg, route oral. To be noted: male, in vivo.
A short description of data set [13]: Cmax in castrated rat at 20 mg/kg, po. Type of data set: ADME, organism-based. Set-up: dose 20 mg/kg, route oral. To be noted: male, in vivo.
The nature of data set [14]: Tmax in castrated rat at 20 mg/kg, po. Details: dose 20 mg/kg, route oral. To be noted: male, in vivo. Format: ADME, organism-based.
Data set [15] can be described thus: AUC (0 to infinity) in castrated rat at 20 mg/kg, po. Type of data set: ADME, organism-based. Details: time infinity, dose 20 mg/kg, route oral. As to conditions: male, plasma.
The nature of data set [16]: Oral bioavailability in castrated rat at 20 mg/kg. Type of data set: ADME, organism-based. To be noted: male, in vivo.
Data set [17] deals with Rattus norvegicus. Description: Reduction of serum LH level in castrated rat at 30 mg/kg, po after 1 hr. Format: functional, organism-based. Set-up: dose 30 mg/kg.
For data set [18], the target named is Voltage-gated inwardly rectifying potassium channel KCNH2 (Homo sapiens, UniProt Q12809). Description: Inhibition of human ERG potassium channel at 2 uM.
Voltage-gated inwardly rectifying potassium channel KCNH2, sequence (Q12809 whole entry): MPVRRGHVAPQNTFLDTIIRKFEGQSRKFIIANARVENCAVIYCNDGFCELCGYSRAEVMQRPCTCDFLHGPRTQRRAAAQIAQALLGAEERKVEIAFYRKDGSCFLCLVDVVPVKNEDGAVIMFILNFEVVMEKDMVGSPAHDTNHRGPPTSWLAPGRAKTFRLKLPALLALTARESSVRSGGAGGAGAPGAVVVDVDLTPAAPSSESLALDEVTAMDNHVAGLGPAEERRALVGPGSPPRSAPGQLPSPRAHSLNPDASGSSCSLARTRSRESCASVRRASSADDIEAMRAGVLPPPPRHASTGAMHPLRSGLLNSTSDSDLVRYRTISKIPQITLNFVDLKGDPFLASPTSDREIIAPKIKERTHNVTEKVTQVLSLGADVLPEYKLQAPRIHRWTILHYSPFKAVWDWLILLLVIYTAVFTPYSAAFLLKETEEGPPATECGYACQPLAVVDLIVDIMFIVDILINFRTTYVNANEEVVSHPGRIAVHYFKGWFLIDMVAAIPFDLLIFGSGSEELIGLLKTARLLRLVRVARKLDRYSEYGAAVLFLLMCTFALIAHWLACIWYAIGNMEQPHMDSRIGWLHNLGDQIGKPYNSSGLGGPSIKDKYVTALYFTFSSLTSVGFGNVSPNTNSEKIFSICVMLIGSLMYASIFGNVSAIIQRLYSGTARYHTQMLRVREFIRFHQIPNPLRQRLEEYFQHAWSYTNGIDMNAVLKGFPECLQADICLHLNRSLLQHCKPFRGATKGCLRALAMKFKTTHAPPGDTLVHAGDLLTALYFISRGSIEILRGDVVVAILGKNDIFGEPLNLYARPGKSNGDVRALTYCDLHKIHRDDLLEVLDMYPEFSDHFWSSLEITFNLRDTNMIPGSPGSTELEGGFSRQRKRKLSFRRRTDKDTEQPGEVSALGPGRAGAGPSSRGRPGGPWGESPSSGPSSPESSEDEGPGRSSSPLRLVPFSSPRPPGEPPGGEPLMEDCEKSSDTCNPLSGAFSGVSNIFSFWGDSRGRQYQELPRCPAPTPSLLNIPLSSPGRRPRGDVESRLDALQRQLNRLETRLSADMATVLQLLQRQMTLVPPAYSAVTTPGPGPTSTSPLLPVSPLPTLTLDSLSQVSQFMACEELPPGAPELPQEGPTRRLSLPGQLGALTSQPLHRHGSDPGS
Data set [19] addresses Opioid receptors; mu/kappa/delta (Homo sapiens, UniProt P41145+P41143+P35372). Description: Inhibition of human non-selective opioid receptor.
In data set [20] the target is T3, Substance-K receptor (Homo sapiens, UniProt P21452).
T3 sequence (P21452 whole entry): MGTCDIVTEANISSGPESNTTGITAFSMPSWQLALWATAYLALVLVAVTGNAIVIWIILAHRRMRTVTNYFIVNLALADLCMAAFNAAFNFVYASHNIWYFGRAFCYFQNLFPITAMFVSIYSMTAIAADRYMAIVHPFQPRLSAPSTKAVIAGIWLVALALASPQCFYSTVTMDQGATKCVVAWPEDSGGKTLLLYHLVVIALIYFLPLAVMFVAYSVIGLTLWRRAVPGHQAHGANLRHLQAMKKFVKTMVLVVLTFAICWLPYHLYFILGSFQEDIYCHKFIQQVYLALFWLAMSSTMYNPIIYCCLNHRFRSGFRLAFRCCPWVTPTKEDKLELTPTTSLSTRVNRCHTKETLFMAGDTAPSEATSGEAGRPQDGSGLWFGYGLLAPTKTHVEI
Description: Inhibition of human neurokinin NK2 receptor.

The target in data set [21] is Histamine H2 receptor (Homo sapiens, UniProt P25021). Description: Inhibition of human histamine H2 receptor.
Histamine H2 receptor, sequence (P25021 whole entry): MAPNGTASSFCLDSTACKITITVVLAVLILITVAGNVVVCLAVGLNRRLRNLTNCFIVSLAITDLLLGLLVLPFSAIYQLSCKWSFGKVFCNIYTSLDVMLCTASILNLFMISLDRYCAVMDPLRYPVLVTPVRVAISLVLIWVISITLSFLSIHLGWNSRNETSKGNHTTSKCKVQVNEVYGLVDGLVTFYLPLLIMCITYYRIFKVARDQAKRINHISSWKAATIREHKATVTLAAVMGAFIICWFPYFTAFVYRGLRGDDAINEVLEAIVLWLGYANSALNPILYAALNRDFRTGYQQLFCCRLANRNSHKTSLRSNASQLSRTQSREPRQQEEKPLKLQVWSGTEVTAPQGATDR
For data set [22], the system named is Rattus norvegicus. Description: Reduction of serum LH level in castrated rat at 30 mg/kg, po after 6 hr. Details: dose 30 mg/kg. Format: functional, organism-based.

≈ marks a conversion by molar mass, not a printed value. Calls of active or inactive are those of the source. No cut-off for these calls is given here. Some results are limits rather than exact numbers.

One may read the IC50 as the concentration needed to halve the response being measured. Broadly, the solubility is how much of the substance goes into solution per volume. Read a low solubility as little dissolved substance. For `CC(C)(C)c1ccc(-c2nc3c(N4CCN(Cc5ccc6ncccc6c5)CC4)cccc3[nH]2)cc1`, the values for the concentration for half-maximal inhibition (IC50) in data set [1], in data set [2] and in [3] were 0.064 µM, 0.021 µM and 0.83 µM, respectively. Also, the concentration in solution in [4] (solubility) was 2 µg/mL (≈ 4.2 µM). Also, the Papp in data set [5] was found to be 4 nm/s.

Turning to `CC(C)(C)c1ccc(-c2nc3c(N4CCN(Cc5cccc6nccnc56)CC4)cccc3[nH]2)cc1`, the results for the half-maximal inhibitory concentration (IC50) in [1], in [2] and in data set [3] were 0.4 µM, 0.026 µM and 5.9 µM, respectively.

By half-life is commonly meant the time in which the quantity being followed falls by half. As usually defined, the clearance is a measure of how efficiently the substance is removed, as volume per time. As usually defined, the AUC(0-inf) is total exposure, with the tail of the curve extrapolated. A lower AUC(0-inf) goes with less exposure. Usually Cmax stands for the highest concentration seen after dosing. The term Tmax denotes the time from dosing to the highest level. In general, bioavailability refers to dose-corrected exposure relative to a reference, in per cent. Usually Ki stands for a dissociation constant, usually derived from enzyme kinetics or from competition with a known ligand. As for `CC(C)(C)c1ccc(-c2nc3c(N4CCN(Cc5ccc6nccnc6c5)CC4)cccc3[nH]2)cc1`, the IC50 turned out to be 0.071 µM in data set [6], 0.028 µM in data set [1], 0.012 µM in data set [2] and 0.35 µM in [3]. In addition, the half-life is 16 min in data set [7], 162 min in [8] and 222 min in data set [12]. The Papp in [5] is 2.3 nm/s. In addition, the clearance in [9] was found to be 2.28 L/h/kg. In [10], the Vd is 6.1 L/kg. Further, the total exposure AUC(0-inf) in data set [11] turned out to be 0.447 µg·h/mL; in [15] it was 6.64 µg·h/mL. In addition, the concentration in data set [13] peaked (Cmax) at 1.33 µg/mL. The Tmax in data set [14] was 120 min. Moreover, in data set [16], the bioavailability came out at 74%. For the same compound, the result in [17] and in data set [22] was Active. Also, in data set [18], the Activity result was “Not Active”. Further, the inhibition constant Ki amounted to 0.55 µM in data set [19], 0.33 µM in [20] and 0.85 µM in data set [21].

As for `Cn1c(=O)c(=O)[nH]c2ccc(CN3CCN(c4cccc5[nH]c(-c6ccc(C(C)(C)C)cc6)nc45)CC3)cc21`, the IC50 is 0.017 µM in [6], 0.0074 µM in data set [1], 0.0035 µM in data set [2] and 0.044 µM in data set [3]. The solubility in [4] was < 1 µg/mL.

For `CC(C)(C)c1ccc(-c2nc3c(N4CCN(Cc5ccc6cccnc6c5)CC4)cccc3[nH]2)cc1`, the half-inhibitory concentration (IC50) was 0.14 µM in data set [1], 0.024 µM in [2] and 0.54 µM in data set [3]. Also, the concentration in solution in [4] (solubility) came to 4 µg/mL (≈ 8.41 µM). Moreover, the Papp in [5] is 15 nm/s.

For the compound `CC(C)(C)c1ccc(-c2nc3c(N4CCN(Cc5cnc6[nH]c(=O)c(=O)[nH]c6c5)CC4)cccc3[nH]2)cc1`, the 50% inhibitory concentration (IC50) in data set [6] was 0.033 µM; in data set [1], 0.0097 µM; in data set [2], 0.0018 µM; in data set [3], 0.24 µM. Further, the solubility in [4] is 4 µg/mL (≈ 7.85 µM). The half-life in [7] was 30 min. The Papp in data set [5] is < 1 nm/s.

With `CC(C)(C)c1ccc(-c2nc3c(N4CCN(Cc5ccc6[nH]c(=O)c(=O)n(Cc7cccnc7)c6c5)CC4)cccc3[nH]2)cc1`, the IC50 in data set [6] is 0.047 µM; in data set [1], 0.014 µM; in data set [2], 0.0056 µM; in data set [3], 0.069 µM. In addition, the solubility in data set [4] is < 1 µg/mL. Further, the half-life in data set [7] turned out to be 10 min. Moreover, in data set [5], the Papp is 0.5 nm/s.

For `CC(C)(C)c1ccc(-c2nc3c(N4CCN(Cc5ccc6[nH]c(=O)c(=O)[nH]c6c5)CC4)cccc3[nH]2)cc1`, the solubility in data set [4] was < 1 µg/mL. Also, in data set [7], the half-life is 14 min. In [5], the Papp was < 1 nm/s.

For the compound `CC(C)(C)c1ccc(-c2nc3c(N4CCN(Cc5ccc6c(c5)NCC(=O)N6)CC4)cccc3[nH]2)cc1`, the 50% inhibitory concentration (IC50) was found to be 0.087 µM in [6], 0.016 µM in data set [1], 0.016 µM in [2] and 0.12 µM in data set [3]. This compound also displayed a solubility in [4] of 1 µg/mL (≈ 2.02 µM). In addition, in [7], the half-life amounted to 3 min. The Papp in [5] stood at 0.5 nm/s.
